According to ChEMBL document CHEMBL5506035, “Discovery of Glutamate Carboxypeptidase III Ligands to Compete the Uptake of [177Lu]Lu-PSMA-617 in Healthy Organs” (J Med Chem, 2024):
The source made the active and inactive calls. The calls are words filed in the database; no cut-off is given here.

Legend:
Interleukin-15 = Interleukin-15 (Homo sapiens, UniProt P40933); assay: Binding affinity to IL-15 (unknown origin) assessed as dissociation constant by fluorescence polarization assay
[1] = target: Immunoglobulin heavy constant gamma 4 (Homo sapiens) (UniProt P01861); assay: Binding affinity to IgG4 (unknown origin) by fluorescence polarization assay
[2] = target: N-acetylated-alpha-linked acidic dipeptidase 2 (Homo sapiens, UniProt Q9Y3Q0); assay: Binding affinity to human recombinant GCPIII assessed as dissociation constant by fluorescence polarization assay
Prolyl endopeptidase FAP [3] = target: T1, Prolyl endopeptidase FAP (Homo sapiens, UniProt Q12884); assay: Binding affinity to human FAP assessed as dissociation constant by fluorescence polarization assay
T1 sequence (Q12884 whole entry): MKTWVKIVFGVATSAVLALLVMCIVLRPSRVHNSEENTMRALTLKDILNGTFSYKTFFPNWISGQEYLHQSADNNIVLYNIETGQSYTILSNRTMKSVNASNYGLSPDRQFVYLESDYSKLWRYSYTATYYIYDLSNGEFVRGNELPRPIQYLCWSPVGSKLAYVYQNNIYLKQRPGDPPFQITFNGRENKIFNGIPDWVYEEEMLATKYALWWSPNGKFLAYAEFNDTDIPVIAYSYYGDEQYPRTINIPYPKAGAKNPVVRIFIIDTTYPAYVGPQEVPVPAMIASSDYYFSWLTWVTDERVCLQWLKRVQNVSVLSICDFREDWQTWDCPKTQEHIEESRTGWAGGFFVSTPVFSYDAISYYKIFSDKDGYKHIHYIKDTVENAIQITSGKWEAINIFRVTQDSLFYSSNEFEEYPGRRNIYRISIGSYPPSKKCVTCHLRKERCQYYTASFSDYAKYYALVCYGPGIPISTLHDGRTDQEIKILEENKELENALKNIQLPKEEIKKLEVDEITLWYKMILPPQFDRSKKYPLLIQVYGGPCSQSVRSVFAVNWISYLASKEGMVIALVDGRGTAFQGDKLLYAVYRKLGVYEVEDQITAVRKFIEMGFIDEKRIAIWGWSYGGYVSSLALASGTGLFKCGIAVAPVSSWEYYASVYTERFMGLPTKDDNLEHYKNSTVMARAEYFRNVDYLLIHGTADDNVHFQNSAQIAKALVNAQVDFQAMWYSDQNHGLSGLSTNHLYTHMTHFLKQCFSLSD

[4] = target: T2, Glutamate carboxypeptidase 2 (Homo sapiens, UniProt Q04609); assay: Displacement of [177Lu]LU-PSMA-617 from PSMA in human salivary gland assessed as residual activity at 10 uM incubated for 1 hr by autoradiography analysis relative to control; format: tissue-based
Target sequence in this assay (Q04609 whole entry, looked up): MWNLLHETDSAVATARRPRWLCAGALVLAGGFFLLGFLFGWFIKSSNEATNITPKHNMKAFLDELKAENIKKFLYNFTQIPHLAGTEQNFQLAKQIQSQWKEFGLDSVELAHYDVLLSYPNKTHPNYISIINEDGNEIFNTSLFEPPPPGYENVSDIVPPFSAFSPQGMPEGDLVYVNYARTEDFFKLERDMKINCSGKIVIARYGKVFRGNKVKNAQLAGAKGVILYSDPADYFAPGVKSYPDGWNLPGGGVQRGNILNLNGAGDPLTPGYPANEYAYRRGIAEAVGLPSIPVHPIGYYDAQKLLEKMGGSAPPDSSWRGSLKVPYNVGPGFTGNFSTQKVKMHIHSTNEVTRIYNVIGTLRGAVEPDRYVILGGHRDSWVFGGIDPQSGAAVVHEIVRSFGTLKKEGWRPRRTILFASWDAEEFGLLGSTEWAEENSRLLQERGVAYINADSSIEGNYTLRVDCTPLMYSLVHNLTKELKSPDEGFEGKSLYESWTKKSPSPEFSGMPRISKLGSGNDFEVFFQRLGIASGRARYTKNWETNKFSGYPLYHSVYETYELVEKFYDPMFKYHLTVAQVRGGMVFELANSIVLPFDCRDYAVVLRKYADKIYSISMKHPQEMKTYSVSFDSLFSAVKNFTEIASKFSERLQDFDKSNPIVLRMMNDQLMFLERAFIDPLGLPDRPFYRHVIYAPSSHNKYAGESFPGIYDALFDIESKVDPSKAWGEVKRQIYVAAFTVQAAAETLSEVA

[5] = target: Stromelysin-1 (Homo sapiens) (UniProt P08254); assay: Binding affinity to MMP3 (unknown origin) by fluorescence polarization assay
[6] = Binding affinity to IL-9 receptor (unknown origin) assessed as dissociation constant by fluorescence polarization assay; design: species or system Homo sapiens
Prolyl endopeptidase FAP [7] = target: T3, Prolyl endopeptidase FAP (Mus musculus, UniProt P97321); assay: Binding affinity to mouse FAP assessed as dissociation constant by fluorescence polarization assay
T3 sequence (P97321 whole entry): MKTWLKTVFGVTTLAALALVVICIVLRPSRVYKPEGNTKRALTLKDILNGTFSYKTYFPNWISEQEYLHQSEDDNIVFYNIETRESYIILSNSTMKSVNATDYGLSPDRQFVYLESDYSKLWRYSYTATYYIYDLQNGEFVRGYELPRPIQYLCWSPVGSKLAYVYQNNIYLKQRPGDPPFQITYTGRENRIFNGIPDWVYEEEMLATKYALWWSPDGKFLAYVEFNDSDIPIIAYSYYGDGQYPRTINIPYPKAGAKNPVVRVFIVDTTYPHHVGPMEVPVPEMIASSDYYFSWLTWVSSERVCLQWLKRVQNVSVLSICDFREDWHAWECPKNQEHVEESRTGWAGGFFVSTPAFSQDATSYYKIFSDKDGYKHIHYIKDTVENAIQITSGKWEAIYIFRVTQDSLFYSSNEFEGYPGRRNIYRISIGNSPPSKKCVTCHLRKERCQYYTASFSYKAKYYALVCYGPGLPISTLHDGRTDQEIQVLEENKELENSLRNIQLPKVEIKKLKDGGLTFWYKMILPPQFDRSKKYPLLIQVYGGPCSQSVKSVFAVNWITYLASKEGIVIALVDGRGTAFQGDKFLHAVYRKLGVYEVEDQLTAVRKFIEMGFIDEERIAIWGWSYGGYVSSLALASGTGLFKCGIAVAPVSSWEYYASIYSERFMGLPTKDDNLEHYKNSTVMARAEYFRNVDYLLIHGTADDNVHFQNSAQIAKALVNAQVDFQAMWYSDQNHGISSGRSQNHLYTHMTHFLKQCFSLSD

Homo sapiens = species: Homo sapiens; assay: Ratio of Kd for binding affinity to human recombinant GCPIII assessed as dissociation constant by fluorescence polarization assay to Kd for binding affinity to human recombinant PSMA assessed as dissociation constant by fluorescence polarization assay
Albumin [8] = target: Albumin (Bos taurus, UniProt P02769); assay: Binding affinity to bovine serum albumin by fluorescence polarization assay
[9] = target: T2, Glutamate carboxypeptidase 2; assay: Binding affinity to human recombinant PSMA assessed as dissociation constant by fluorescence polarization assay
Target sequence in this assay (Q04609 whole entry): as the sequence (Q04609 whole entry, looked up) above

Albumin [10] = target: Albumin (Macaca fascicularis, UniProt A2V9Z4); assay: Binding affinity to cynomolgus serum albumin by fluorescence polarization assay; conditions: cynomolgus monkey
Albumin [11] = target: Albumin (Oryctolagus cuniculus, UniProt P49065); assay: Binding affinity to rabbit serum albumin by fluorescence polarization assay
[12] = target: Carbonic anhydrase 2 (Homo sapiens) (UniProt P00918); assay: Binding affinity to Carbonic anhydrase II (unknown origin) by fluorescence polarization assay
[13] = target: Urokinase-type plasminogen activator (Homo sapiens, UniProt P00749); assay: Binding affinity to Urokinase (unknown origin) assessed as dissociation constant by fluorescence polarization assay
[14] = target: Natural cytotoxicity triggering receptor 1 (Homo sapiens, UniProt O76036); assay: Binding affinity to NKp46 (unknown origin) assessed as dissociation constant by fluorescence polarization assay
Albumin [15] = target: Albumin (Rattus norvegicus, UniProt P02770); assay: Binding affinity to rat serum albumin by fluorescence polarization assay
Albumin [16] = target: Albumin (Homo sapiens, UniProt P02768); assay: Binding affinity to human serum albumin by fluorescence polarization assay
Chain of Albumin (Homo sapiens, UniProt P02768) (P02768 whole entry): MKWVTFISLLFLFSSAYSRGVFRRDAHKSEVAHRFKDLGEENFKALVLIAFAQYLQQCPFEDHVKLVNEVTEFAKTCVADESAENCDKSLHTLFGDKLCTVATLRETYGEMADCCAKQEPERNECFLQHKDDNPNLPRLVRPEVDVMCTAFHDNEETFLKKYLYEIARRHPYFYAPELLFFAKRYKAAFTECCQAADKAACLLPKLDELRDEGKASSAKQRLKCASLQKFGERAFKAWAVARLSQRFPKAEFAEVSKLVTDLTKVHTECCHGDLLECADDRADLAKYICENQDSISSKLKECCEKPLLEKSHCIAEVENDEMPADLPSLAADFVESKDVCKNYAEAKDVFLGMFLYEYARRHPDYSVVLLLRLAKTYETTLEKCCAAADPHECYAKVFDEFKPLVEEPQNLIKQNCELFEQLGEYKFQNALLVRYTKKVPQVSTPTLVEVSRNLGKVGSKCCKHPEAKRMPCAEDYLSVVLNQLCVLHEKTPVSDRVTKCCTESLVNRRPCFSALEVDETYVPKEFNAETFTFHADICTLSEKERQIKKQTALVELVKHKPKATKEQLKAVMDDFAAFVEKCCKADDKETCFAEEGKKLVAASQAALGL

Chain of Albumin (Oryctolagus cuniculus, UniProt P49065) (P49065 whole entry): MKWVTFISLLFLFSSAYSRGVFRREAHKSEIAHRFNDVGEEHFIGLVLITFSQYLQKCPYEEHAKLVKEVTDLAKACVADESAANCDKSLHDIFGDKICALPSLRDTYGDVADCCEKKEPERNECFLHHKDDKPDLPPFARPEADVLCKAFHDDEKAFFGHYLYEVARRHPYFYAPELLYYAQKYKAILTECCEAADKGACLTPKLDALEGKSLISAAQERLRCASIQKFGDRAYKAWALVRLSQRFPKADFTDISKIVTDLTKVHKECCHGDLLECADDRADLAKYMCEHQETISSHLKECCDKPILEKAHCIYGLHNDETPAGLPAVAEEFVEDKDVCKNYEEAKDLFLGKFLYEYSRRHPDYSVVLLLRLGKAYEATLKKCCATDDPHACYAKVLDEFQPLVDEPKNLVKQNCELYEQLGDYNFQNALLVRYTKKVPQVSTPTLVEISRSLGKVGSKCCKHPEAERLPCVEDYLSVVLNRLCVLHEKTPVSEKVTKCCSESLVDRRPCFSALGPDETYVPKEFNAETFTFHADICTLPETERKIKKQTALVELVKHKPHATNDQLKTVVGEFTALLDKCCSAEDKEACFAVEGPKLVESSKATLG
Chain of Albumin (Macaca fascicularis, UniProt A2V9Z4) (A2V9Z4 whole entry): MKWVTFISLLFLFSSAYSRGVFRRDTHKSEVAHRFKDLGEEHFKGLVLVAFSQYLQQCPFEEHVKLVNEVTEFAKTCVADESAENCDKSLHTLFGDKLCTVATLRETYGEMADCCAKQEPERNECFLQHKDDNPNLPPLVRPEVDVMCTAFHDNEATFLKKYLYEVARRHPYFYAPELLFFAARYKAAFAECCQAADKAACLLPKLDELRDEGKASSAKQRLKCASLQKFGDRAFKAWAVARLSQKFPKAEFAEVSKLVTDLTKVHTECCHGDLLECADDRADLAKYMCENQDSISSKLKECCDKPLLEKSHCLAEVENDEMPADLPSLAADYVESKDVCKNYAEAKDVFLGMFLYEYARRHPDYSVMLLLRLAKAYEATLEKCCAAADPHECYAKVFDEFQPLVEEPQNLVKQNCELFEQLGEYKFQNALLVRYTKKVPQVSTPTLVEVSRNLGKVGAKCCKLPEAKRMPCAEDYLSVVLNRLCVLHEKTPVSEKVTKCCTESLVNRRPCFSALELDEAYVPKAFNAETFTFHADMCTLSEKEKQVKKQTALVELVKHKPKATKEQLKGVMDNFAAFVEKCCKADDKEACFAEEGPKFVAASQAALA
Chain of Albumin (Bos taurus, UniProt P02769) (P02769 whole entry): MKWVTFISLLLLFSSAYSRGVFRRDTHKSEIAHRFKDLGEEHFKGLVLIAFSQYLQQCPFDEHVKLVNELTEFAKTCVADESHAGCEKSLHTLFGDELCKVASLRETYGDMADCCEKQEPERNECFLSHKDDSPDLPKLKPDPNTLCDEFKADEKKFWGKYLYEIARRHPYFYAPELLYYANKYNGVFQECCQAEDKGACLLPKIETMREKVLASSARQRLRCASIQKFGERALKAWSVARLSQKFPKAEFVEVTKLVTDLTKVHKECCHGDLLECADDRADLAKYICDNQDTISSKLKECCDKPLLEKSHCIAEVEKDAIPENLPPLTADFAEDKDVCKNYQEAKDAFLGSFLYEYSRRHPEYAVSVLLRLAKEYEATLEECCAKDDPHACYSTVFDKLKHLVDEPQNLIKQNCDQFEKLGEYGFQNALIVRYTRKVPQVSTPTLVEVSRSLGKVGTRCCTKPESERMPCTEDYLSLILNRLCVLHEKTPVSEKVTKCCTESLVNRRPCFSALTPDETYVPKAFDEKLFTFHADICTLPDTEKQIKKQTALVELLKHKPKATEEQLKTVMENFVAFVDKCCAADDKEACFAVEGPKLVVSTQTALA
Chain of Interleukin-15 (P40933 whole entry): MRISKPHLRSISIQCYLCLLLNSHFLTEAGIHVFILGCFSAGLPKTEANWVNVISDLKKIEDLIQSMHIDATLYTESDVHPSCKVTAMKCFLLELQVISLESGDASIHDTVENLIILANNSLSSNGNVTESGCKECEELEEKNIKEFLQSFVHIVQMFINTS
Chain of Immunoglobulin heavy constant gamma 4 (Homo sapiens) (P01861 whole entry): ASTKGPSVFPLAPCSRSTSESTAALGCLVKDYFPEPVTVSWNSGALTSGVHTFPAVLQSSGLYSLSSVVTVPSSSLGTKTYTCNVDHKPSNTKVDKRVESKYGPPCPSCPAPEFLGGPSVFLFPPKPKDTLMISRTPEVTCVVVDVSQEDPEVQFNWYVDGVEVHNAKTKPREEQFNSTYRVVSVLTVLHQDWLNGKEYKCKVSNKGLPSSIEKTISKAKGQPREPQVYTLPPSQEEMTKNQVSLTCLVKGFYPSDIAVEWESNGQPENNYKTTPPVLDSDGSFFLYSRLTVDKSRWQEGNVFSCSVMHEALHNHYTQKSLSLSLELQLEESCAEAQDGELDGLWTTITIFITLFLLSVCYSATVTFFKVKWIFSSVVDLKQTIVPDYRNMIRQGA
Chain of N-acetylated-alpha-linked acidic dipeptidase 2 (Q9Y3Q0 whole entry): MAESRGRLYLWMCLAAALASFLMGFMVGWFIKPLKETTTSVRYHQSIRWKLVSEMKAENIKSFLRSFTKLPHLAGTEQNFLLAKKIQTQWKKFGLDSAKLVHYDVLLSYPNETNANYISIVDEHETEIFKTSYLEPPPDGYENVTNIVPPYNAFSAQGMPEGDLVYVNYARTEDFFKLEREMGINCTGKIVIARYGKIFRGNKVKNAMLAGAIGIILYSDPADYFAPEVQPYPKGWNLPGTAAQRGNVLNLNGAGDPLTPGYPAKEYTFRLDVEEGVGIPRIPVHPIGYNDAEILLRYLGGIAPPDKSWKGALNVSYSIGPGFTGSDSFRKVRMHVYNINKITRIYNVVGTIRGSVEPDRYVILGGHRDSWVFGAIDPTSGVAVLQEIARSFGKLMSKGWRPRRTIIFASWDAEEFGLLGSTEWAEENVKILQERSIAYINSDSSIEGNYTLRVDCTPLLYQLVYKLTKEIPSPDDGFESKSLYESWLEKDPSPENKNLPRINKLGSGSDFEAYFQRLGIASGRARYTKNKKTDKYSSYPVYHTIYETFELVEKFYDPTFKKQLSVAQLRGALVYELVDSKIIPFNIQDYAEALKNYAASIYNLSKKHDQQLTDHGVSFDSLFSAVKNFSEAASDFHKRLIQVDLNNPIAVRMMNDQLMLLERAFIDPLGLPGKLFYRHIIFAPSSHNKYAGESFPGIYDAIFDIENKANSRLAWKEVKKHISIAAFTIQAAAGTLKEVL
Chain of Stromelysin-1 (Homo sapiens) (P08254 100-477 limits assumed): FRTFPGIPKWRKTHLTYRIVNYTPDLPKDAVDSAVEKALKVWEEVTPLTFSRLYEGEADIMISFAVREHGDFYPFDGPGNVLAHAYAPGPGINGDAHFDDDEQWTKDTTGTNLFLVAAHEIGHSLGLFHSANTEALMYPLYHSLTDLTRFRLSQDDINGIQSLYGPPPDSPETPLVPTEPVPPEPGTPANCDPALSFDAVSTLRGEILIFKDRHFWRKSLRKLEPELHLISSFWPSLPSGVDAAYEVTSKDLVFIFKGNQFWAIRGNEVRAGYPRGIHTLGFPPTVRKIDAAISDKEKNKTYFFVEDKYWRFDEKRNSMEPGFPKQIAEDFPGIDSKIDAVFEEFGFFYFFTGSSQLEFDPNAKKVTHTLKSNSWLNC

Kd (Interleukin-15): > 5 µM
Activity [1]: inactive
Kd [2]: 14 nM
Kd (Prolyl endopeptidase FAP [3]): > 1500 nM
Activity [4]: 39%
Activity [5]: inactive
Kd [6]: > 7.5 µM
Kd (Prolyl endopeptidase FAP [7]): > 700 nM
Ratio (Homo sapiens): 100
Kd (Albumin [8]): 4.5 µM
Kd [9]: > 2 nM
Activity (Albumin [10]): Not Active
Activity (Albumin [11]): Not Active
Activity [12]: inactive
Kd [13]: > 9.5 µM
Activity (Albumin [15]): Not Active
Activity (Albumin [16]): Not Active
SMILES: O=C(N[C@@H]1C[C@@H](C(=O)N[C@@H](CCCCNC(=S)Nc2ccc3c(c2)C(=O)OC32c3ccc(O)cc3Oc3cc(O)ccc32)C(=O)O)N(C(=O)c2cnoc2C2CC2)C1)c1c[nH]nn1
Kd [14]: > 3.3 µM
